Experimental data published in patent publication US10597388B2, “Pyridazinone herbicides” (FMC CORPORATION, priority 2014, dated 2020).
Like-named read-outs stand apart in the source and are kept apart here.

How the values were obtained:
[1] = test system: velvetleaf (Abutilon theophrasti); experiment: Test A greenhouse herbicide test, pre- and postemergence; type: in vivo; settings: 240 h, 1000 g ai/ha, 0 to 100 scale
Summary of the method: (§1)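 Seeds sown in loam–sand blend got a preemergence directed soil spray of compound in non-phytotoxic solvent with surfactant. Postemergence treatment was given at 2–10 cm, one- to two-leaf stage. After ~10 d in greenhouse, injury was rated visually vs untreated controls, 0 (no effect) to 100 (complete control).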

[2] = test system: wheat (Triticum aestivum); experiment: as above; type: in vivo; settings: Triticum aestivum, 240 h, 1000 g ai/ha, 0 to 100 scale
Summary of the method: as §1

[3] = test system: momingglory (Ipomoea spp.); experiment: as above; type: in vivo; settings: 240 h, 1000 g ai/ha, 0 to 100 scale
Summary of the method: as §1

[4] = test system: barnyardgrass (Echinochloa crus-galli); experiment: as above; type: in vivo; settings: Echinochloa crus-galli, 240 h, 1000 g ai/ha, 0 to 100 scale
Summary of the method: as §1

[5] = test system: corn (Zea mays); experiment: as above; type: in vivo; settings: Zea mays, 240 h, 1000 g ai/ha, 0 to 100 scale; for plant injury at 1000 g/ha: post-emergence, Postemergence, 0 is no effect, 100 is complete control, read-out: Corn plant response rating; for Corn plant response rating (crop injury, 0 = no effect, 100 = complete kill) at 1000 g/ha: pre-emergence, Preemergence, 100 complete control
Summary of the method: as §1

[6] = test system: crabgrass, large (large crabgrass, Digitaria sanguinalis); experiment: as above; type: in vivo; settings: 240 h, 1000 g ai/ha, 0 to 100 scale
Summary of the method: as §1

[7] = test system: pigweed (Amaranthus retroflexus); experiment: as above; type: in vivo; settings: Amaranthus retroflexus, 240 h, 1000 g ai/ha, 0 to 100 scale
Summary of the method: as §1

[8] = test system: foxtail, giant (giant foxtail, Setaria faberii); experiment: as above; type: in vivo; settings: Setaria faberi, 240 h, 1000 g ai/ha, 0 to 100 scale
Summary of the method: as §1

[9] = test system: ducksalad (Heteranthera limosa); experiment: Test B flooded paddy test; type: in vivo; settings: Heteranthera limosa, 360 h; 250 g ai/ha, Flood; visual rating on scale of 0 to 100 where 0 is no effect and 100 is complete control; 13 to 15 d after treatment; read-out: Plant response rating, Ducksalad
Summary of the method: (§2)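 Plants at the 2-leaf stage were flooded to 3 cm above soil, and test compounds were applied directly into the paddy water, which was held at that depth throughout. After 13 to 15 d in a greenhouse, injury was rated visually against untreated controls on a 0–100 scale (0 no effect, 100 complete control).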

[10] = test system: barnyardgrass (Echinochloa crus-galli); experiment: Test B flooded paddy test; type: in vivo; settings: Echinochloa crus-galli, 360 h; 250 g ai/ha, Flood; visual rating on scale of 0 to 100 where 0 is no effect and 100 is complete control; 13 to 15 d after treatment; read-out: Plant response rating, Barnyardgrass
Summary of the method: as §2

[11] = test system: rice (Oryza sativa); experiment: Test B flooded paddy test; type: in vivo; settings: Oryza sativa, 360 h; 250 g ai/ha, Flood; visual rating on scale of 0 to 100 where 0 is no effect and 100 is complete control; 13 to 15 d after treatment; read-out: Plant response rating, Rice
Summary of the method: as §2

[12] = test system: sedge, umbrella (small-flower umbrella sedge, Cyperus difformis); experiment: Test B flooded paddy test; type: in vivo; settings: Cyperus difformis, 360 h; 250 g ai/ha, Flood; visual rating on scale of 0 to 100 where 0 is no effect and 100 is complete control; 13 to 15 d after treatment; read-out: Plant response rating, Sedge, Umbrella
Summary of the method: as §2

[13] = post-emergence, Postemergence, 0 is no effect, 100 is complete control, read-out: Velvetleaf plant response rating
[14] = pre-emergence, Preemergence, 0 no effect, 100 complete control, read-out: Plant response rating, Velvetleaf
[15] = post-emergence, Postemergence, 0 is no effect, 100 is complete control, read-out: Wheat plant response rating
[16] = pre-emergence, Preemergence, 0 no effect, 100 complete control, read-out: Plant response rating, Wheat
[17] = post-emergence, Postemergence, 0 is no effect, 100 is complete control, read-out: Morningglory plant response rating
[18] = pre-emergence, Preemergence, 0 no effect, 100 complete control, read-out: Plant response rating, Morningglory
[19] = post-emergence, Postemergence, 0 is no effect, 100 is complete control, read-out: Barnyardgrass plant response rating
[20] = pre-emergence, Preemergence, 0 no effect, 100 complete control, read-out: Plant response rating, Barnyardgrass
[21] = post-emergence, Postemergence, 0 is no effect, 100 is complete control, read-out: Crabgrass, Large plant response rating
[22] = pre-emergence, Preemergence, 0 no effect, 100 complete control, read-out: Plant response rating, Crabgrass, Large
[23] = post-emergence, Postemergence, 0 is no effect, 100 is complete control, read-out: Pigweed plant response rating
[24] = pre-emergence, Preemergence, 0 no effect, 100 complete control, read-out: Plant response rating, Pigweed
[25] = post-emergence, Postemergence, 0 is no effect, 100 is complete control, read-out: Foxtail, Giant plant response rating
[26] = pre-emergence, Preemergence, 0 no effect, 100 complete control, read-out: Plant response rating, Foxtail, Giant

Row | melting point [°C] | Compound | pest or weed control at 1000 g/ha [1, 13] [%] | pest or weed control at 1000 g/ha [1, 14] [%] | plant injury at 1000 g/ha [2, 15] [%] | plant injury at 1000 g/ha [2, 16] [%] | pest or weed control at 1000 g/ha [3, 17] [%] | pest or weed control at 1000 g/ha [3, 18] [%] | pest or weed control at 1000 g/ha [4, 19] [%] | pest or weed control at 1000 g/ha [4, 20] [%] | plant injury at 1000 g/ha [5] [%] | Corn plant response rating (crop injury, 0 = no effect, 100 = complete kill) at 1000 g/ha [5] [%] | pest or weed control at 1000 g/ha [6, 21] [%] | pest or weed control at 1000 g/ha [6, 22] [%] | pest or weed control at 1000 g/ha [7, 23] [%] | pest or weed control at 1000 g/ha [7, 24] [%] | pest or weed control at 1000 g/ha [8, 25] [%] | pest or weed control at 1000 g/ha [8, 26] [%] | pest or weed control at 250 g/ha [9] [%] | pest or weed control at 250 g/ha [10] [%] | plant injury at 250 g/ha [11] [%] | other results
1 | 224 to 227 | Cc1cc(C)c2c(-c3c(O)c(C)nn(C)c3=O)c(C)sc2c1 [Compound 3, 5-hydroxy-2,6-dimethyl-4-(2,4,6-trimethylbenzo[b]thien-3-yl)-3(2H)-pyridazinone] | 70 | 70 | 0 | 0 | 90 | 80 | 50 | 80 | 0 | 0 | 10 | 80 | 0 | 0 | 10 | 60 | 20 | 0 | 0 | pest or weed control at 250 g/ha [12]: 0%
2 | 238 to 240 | Cc1nn(C)c(=O)c(-c2c(C)oc3ccccc23)c1O [Compound 4, 5-hydroxy-2,6-dimethyl-4-(2-methyl-3-benzofuranyl)-3 (2H)-pyridazinone] | 60 | 40 | 0 | 0 | 70 | 60 | 70 | 100 | 0 | 10 | 50 | 80 | 50 | 70 | 80 | 80 | 0 | 0 | 0 | pest or weed control at 250 g/ha [12]: 0%
